From patent US11767322B2 (BRISTOL-MYERS SQUIBB COMPANY, priority 2020, dated 2023)
Where two headings read alike, the source gives them in different places.

How the values were obtained:
[1] = test system: MLKL phosphorylation in HT29-L23 human colorectal adenocarcinoma cells; experiment: MLKL phosphorylation high-content assay; format: cell-based
[2] = biological target: GST-tagged PIK3Cδ in complex with PIK3R1 (Homo sapiens, UniProt O00329); experiment: PI3Kδ HTRF binding assay; conditions: HTRF probe displacement, 1 h at rt; read-out: PIK3CD IC50
[3] = biological target: T1, His-GST-TVMV-hRIPK1(1-324) (Homo sapiens, UniProt Q13546); experiment: biochemical; format: binding
T1 construct: The coding region of human RIPK1(1-324) flanked by NdeI site at 5′ end; made in house; host or cells: Spodoptera frugiperda Sf9 insect cells (baculovirus, Bac-to-Bac)
T1 sequence (Q13546 1-324): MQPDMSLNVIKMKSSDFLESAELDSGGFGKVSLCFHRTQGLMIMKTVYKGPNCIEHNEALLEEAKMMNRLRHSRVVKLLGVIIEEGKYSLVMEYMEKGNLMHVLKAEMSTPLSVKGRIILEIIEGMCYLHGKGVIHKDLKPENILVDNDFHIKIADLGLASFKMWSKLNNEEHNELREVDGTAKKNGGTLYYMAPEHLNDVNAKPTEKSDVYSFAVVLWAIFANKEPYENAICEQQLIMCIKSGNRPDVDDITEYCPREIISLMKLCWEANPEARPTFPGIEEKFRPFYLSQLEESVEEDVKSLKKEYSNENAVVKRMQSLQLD

[4] = Homo sapiens, 6 h, HT29-L23 cells, necroptosis induced with TNFα, SMAC mimetic and Z-VAD, 6 h, maximal inhibition defined by Nec1s, read-out: pMLKL IC50
[5] = HTRF probe displacement, 1 h at rt, read-out: RIPK1 IC50
[6] = read-out: pMLKL IC50, HT29-L23 cells, necroptosis induced with TNFα, SMAC mimetic and Z-VAD, 6 h, maximal inhibition defined by Nec1s
[7] = Homo sapiens, 6 h, read-out: pMLKL IC50, HT29-L23 cells, necroptosis induced with TNFα, SMAC mimetic and Z-VAD, 6 h, maximal inhibition defined by Nec1s

GST-tagged PIK3Cδ in complex with PIK3R1, sequence (O00329 whole entry): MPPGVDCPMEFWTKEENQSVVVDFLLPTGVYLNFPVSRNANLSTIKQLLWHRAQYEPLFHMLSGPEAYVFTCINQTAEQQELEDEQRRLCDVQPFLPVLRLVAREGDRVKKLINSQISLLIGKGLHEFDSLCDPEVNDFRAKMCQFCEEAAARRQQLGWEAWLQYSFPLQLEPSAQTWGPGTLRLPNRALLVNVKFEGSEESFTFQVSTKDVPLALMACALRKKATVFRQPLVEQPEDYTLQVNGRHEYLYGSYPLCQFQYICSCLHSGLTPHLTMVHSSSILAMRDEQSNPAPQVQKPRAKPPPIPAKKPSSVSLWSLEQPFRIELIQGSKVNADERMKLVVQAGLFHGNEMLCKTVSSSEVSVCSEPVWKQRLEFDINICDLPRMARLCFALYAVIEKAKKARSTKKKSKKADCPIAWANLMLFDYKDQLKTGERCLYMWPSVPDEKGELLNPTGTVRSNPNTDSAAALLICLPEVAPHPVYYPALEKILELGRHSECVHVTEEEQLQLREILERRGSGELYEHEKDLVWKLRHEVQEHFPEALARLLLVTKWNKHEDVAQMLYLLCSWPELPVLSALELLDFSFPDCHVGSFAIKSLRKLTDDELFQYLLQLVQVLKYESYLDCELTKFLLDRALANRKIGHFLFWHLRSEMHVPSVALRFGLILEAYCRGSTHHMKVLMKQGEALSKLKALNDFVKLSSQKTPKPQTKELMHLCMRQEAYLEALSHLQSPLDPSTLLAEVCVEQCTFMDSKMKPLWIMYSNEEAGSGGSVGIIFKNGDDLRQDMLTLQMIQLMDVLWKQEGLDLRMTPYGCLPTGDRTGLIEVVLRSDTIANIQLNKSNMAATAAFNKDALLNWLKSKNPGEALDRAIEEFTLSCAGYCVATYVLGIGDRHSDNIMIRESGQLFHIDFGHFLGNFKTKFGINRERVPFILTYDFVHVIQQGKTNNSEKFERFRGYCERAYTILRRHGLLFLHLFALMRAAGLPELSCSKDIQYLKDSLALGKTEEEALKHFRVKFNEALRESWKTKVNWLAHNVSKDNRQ
GST-tagged PIK3Cδ in complex with PIK3R1, sequence (P27986 whole entry partner): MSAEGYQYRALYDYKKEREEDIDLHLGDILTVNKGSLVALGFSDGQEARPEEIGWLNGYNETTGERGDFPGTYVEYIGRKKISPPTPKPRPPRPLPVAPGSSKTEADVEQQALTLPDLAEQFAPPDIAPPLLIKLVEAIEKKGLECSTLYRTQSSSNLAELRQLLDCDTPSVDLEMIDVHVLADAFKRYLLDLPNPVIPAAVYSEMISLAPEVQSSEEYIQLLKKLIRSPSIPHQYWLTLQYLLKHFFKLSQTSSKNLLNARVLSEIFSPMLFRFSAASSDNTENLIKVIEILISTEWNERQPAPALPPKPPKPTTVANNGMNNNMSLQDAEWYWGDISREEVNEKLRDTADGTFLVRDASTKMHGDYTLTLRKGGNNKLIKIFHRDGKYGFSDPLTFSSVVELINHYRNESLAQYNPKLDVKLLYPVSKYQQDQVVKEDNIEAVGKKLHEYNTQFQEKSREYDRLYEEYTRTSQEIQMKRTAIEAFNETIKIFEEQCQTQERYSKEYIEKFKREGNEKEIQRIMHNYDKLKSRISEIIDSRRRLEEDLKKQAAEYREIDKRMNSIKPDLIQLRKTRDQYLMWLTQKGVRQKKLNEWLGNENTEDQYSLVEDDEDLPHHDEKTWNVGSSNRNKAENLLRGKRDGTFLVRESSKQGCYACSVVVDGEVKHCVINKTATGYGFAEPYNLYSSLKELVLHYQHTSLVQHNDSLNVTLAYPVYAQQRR

| Compound | IC50 [2] [nM] | IC50 [3, 5] [nM] | other results |
| --- | --- | --- | --- |
| Nc1nc2cc(-c3ccc(Cl)c(C(=O)NCC[C@H](O)c4ccc(Cl)cc4)c3)ccn2n1 [Example 91, (S)-5-(2-amino-[1,2,4]triazolo[1,5-a]pyridin-7-yl)-2-chloro-N-(3-(4-chlorophenyl)-3-hydroxypropyl)benzamide] | 8000 | – | IC50 [1, 4]: 34 nM |
| Cc1ccc(-c2ccn3nc(N)nc3c2)c(F)c1C(=O)NCCC(O)c1ccc(F)c(F)c1 (single isomer, unassigned) [Example 66, 3-(2-amino-[1,2,4]triazolo[1,5-a]pyridin-7-yl)-N-(3-(3,4-difluorophenyl)-3-hydroxypropyl)-2-fluoro-6-methylbenzamide] | > 15000 | – | IC50 [1, 4]: 1.2 nM; IC50 ([1]; Homo sapiens, Table 22, compounds of the present invention, read-out: pMLKL IC50): 1.2 nM |
| Cc1ccc(-c2ccn3nc(N)nc3c2)c(F)c1C(=O)NC(CF)CC(O)c1ccc(Cl)cc1 (single isomer, unassigned) [Example 24, 3-(2-amino-[1,2,4]triazolo[1,5-a]pyridin-7-yl)-N-(4-(4-chlorophenyl)-1-fluoro-4-hydroxybutan-2-yl)-2-fluoro-6-methylbenzamide] | > 15000 | – | – |
| Cc1ccc(-c2ccn3nc(N)nc3c2)c(F)c1C(=O)NCC(F)(F)C(O)C1CC(F)(F)C1 (stereo not shown) [Example 259, 3-(2-amino-[1,2,4]triazolo[1,5-a]pyridin-7-yl)-N-(3-(3,3-difluorocyclobutyl)-2,2-difluoro-3-hydroxypropyl)-2-fluoro-6-methylbenzamide] | > 15000 | – | – |
| Cc1ccc(-c2ccn3nc(N)nc3c2)c(F)c1C(=O)NCCC(O)c1cccc(F)c1 (single isomer, unassigned) [Example 63, 3-(2-amino-[1,2,4]triazolo[1,5-a]pyridin-7-yl)-2-fluoro-N-(3-(3-fluorophenyl)-3-hydroxypropyl)-6-methylbenzamide] | 13000 | – | IC50 [1, 4]: 1.9 nM |
| Cc1ccc(-c2ccn3nc(N)nc3c2)c(F)c1C(=O)NC[C@H](F)[C@@H](O)c1ccc(Cl)cc1 (single isomer, unassigned) [Example 302] | > 15000 | – | – |
| Cc1ccc(-c2ccn3nc(N)nc3c2)c(F)c1C(=O)NC(CF)CC(O)c1ccc(Cl)cc1 (single isomer, unassigned) [Example 23, 3-(2-amino-[1,2,4]triazolo[1,5-a]pyridin-7-yl)-N-(4-(4-chlorophenyl)-1-fluoro-4-hydroxybutan-2-yl)-2-fluoro-6-methylbenzamide] | > 15000 | – | – |
| Cc1ccc(-c2ccn3nc(N)nc3c2)c(F)c1C(=O)NC[C@@H](F)[C@H](O)c1ccc(Cl)cc1 (single isomer, unassigned) [Example 303] | > 15000 | – | – |
| Cc1cc(F)c(-c2ccn3nc(N)nc3c2)cc1C(=O)NCCC(O)c1ccc(C(F)(F)F)cc1 (racemic) [Example 2, 5-(2-amino-[1,2,4]triazolo[1,5-a]pyridin-7-yl)-4-fluoro-N-(3-hydroxy-3-(4-(trifluoromethyl)phenyl)propyl)-2-methylbenzamide] | > 15000 | – | – |
| Cc1ccc(-c2ccn3nc(N)nc3c2)c(F)c1C(=O)NCC(F)(F)C(O)C1CC(F)(F)C1 (stereo not shown) [Example 258, 3-(2-amino-[1,2,4]triazolo[1,5-a]pyridin-7-yl)-N-(3-(3,3-difluorocyclobutyl)-2,2-difluoro-3-hydroxypropyl)-2-fluoro-6-methylbenzamide] | > 15000 | – | – |
| Cc1ccc(-c2ccn3nc(N)nc3c2)c(F)c1C(=O)NCC(O)C(F)(F)c1ccc(F)cc1 (single isomer, unassigned) [Example 290, 3-(2-amino-[1,2,4]triazolo[1,5-a]pyridin-7-yl)-N-(3,3-difluoro-3-(4-fluorophenyl)-2-hydroxypropyl)-2-fluoro-6-methylbenzamide] | – | 4.8 | IC50 ([3]; Table 22, compounds of the present invention, read-out: RPIK1 IC50): 4.8 nM; IC50 [1, 6]: 0.5 nM; IC50 ([1]; read-out: pMLKL IC50, Table 22, compounds of the present invention): 0.5 nM |
| Cc1ccc(-c2ccn3nc(N)nc3c2)c(F)c1C(=O)NCC(F)(F)C(N)c1ccc(F)cc1 (stereo not shown) [Example 275, N-(3-amino-2,2-difluoro-3-(4-fluorophenyl)propyl)-3-(2-amino-[1,2,4]triazolo[1,5-a]pyridin-7-yl)-2-fluoro-6-methylbenzamide] | – | 6.5 | IC50 [1, 7]: 1.5 nM |
| Cc1ccc(-c2ccn3nc(N)nc3c2)c(F)c1C(=O)NCCC(C)(O)c1ccc(Cl)cc1 (racemic) [Example 17, 3-(2-amino-[1,2,4]triazolo[1,5-a]pyridin-7-yl)-N-(3-(4-chlorophenyl)-3-hydroxybutyl)-2-fluoro-6-methylbenzamide] | – | 1.9 | IC50 [1, 7]: 2.5 nM |
| Nc1nc2cc(-c3ccc(Cl)c(C(=O)NCC(F)(F)C(O)c4cccc(Cl)c4F)c3F)ccn2n1 (single isomer, unassigned) [Example 170, 3-(2-amino-[1,2,4]triazolo[1,5-a]pyridin-7-yl)-6-chloro-N-(3-(3-chloro-2-fluorophenyl)-2,2-difluoro-3-hydroxypropyl)-2-fluorobenzamide] | – | 0.1 | IC50 [1, 6]: 1.4 nM |
| Nc1nc2cc(-c3ccc(Cl)c(C(=O)NCC(F)(F)C(O)c4cccc(Cl)n4)c3F)ccn2n1 (single isomer, unassigned) [Example 262, 3-(2-amino-[1,2,4]triazolo[1,5-a]pyridin-7-yl)-6-chloro-N-(3-(6-chloropyridin-2-yl)-2,2-difluoro-3-hydroxypropyl)-2-fluorobenzamide] | – | 14 | IC50 [1, 7]: 45 nM |
| Cc1ccc(-c2ccn3nc(N)nc3c2)c(F)c1C(=O)NCCC(O)c1ccc(Cl)cn1 (single isomer, unassigned) [Example 47, 3-(2-amino-[1,2,4]triazolo[1,5-a]pyridin-7-yl)-N-(3-(5-chloropyridin-2-yl)-3-hydroxypropyl)-2-fluoro-6-methylbenzamide] | > 15000 | – | – |
| Nc1nc2cc(-c3ccc(Cl)c(C(=O)NCC(F)C(O)c4ccc(Cl)cc4)c3F)ccn2n1 (stereo not shown) [Example 128, 3-(2-amino-[1,2,4]triazolo[1,5-a]pyridin-7-yl)-6-chloro-N-(3-(4-chlorophenyl)-2-fluoro-3-hydroxypropyl)-2-fluorobenzamide] | – | 5 | IC50 [1, 7]: 1.2 nM |
| Cc1cc(F)c(-c2ccn3nc(N)nc3c2)cc1C(=O)NCCC(O)c1ccc(C(F)(F)F)cc1 (single isomer, unassigned) [Example 3, 5-(2-amino-[1,2,4]triazolo[1,5-a]pyridin-7-yl)-4-fluoro-N-(3-hydroxy-3-(4-(trifluoromethyl)phenyl)propyl)-2-methylbenzamide] | > 15000 | – | – |
| Nc1nc2cc(-c3ccc(Cl)c(C(=O)NCC(F)(F)C(O)c4cccc(C(F)(F)F)n4)c3F)ccn2n1 (single isomer, unassigned) [Example 255, 3-(2-amino-[1,2,4]triazolo[1,5-a]pyridin-7-yl)-6-chloro-N-(2,2-difluoro-3-hydroxy-3-(6-(trifluoromethyl)pyridin-2-yl)propyl)-2-fluorobenzamide] | – | 17 | IC50 [1, 6]: 79 nM |
| Cc1ccc(-c2ccn3nc(N)nc3c2)c(F)c1C(=O)NCC(F)(F)C(O)c1ccc(Cl)c(Cl)c1 (single isomer, unassigned) [Example 113, 3-{2-amino-[1,2,4]triazolo[1,5-a]pyridin-7-yl}-N-[3-(3,4-dichlorophenyl)-2,2-difluoro-3-hydroxypropyl]-2-fluoro-6-methylbenzamide] | > 15000 | – | – |
| Cc1ccc(-c2ccn3nc(N)nc3c2)c(F)c1C(=O)NCC(F)(F)C(O)c1c(F)cc(F)cc1F (single isomer, unassigned) [Example 284, 3-(2-amino-[1,2,4]triazolo[1,5-a]pyridin-7-yl)-N-(2,2-difluoro-3-hydroxy-3-(2,4,6-trifluorophenyl)propyl)-2-fluoro-6-methylbenzamide] | – | 3.5 | IC50 [1, 6]: 1.1 nM |
| Cc1cc(F)c(-c2ccn3nc(N)nc3c2)cc1C(=O)NCC[C@H](O)c1ccc(Cl)cc1 [Example 1, (S)-5-(2-amino-[1,2,4]triazolo[1,5-a]pyridin-7-yl)-N-(3-(4-chlorophenyl)-3-hydroxypropyl)-4-fluoro-2-methylbenzamide] | – | 1.2 | IC50 [1, 7]: 1.3 nM |
| Cc1ccc(-c2ccn3nc(N)nc3c2)c(F)c1C(=O)NCC(F)(F)C(C)(O)c1ccc(C(F)(F)F)cc1 (stereo not shown) [Example 227, 3-(2-amino-[1,2,4]triazolo[1,5-a]pyridin-7-yl)-N-(2,2-difluoro-3-hydroxy-3-(4-(trifluoromethyl)phenyl)butyl)-2-fluoro-6-methylbenzamide] | – | 15 | IC50 [1, 7]: 0.7 nM |
| Cc1ccc(-c2ccn3nc(N)nc3c2)c(F)c1C(=O)NCC(F)(F)C(O)c1ccc(Cl)c(Cl)c1 (single isomer, unassigned) [Example 112, 3-{2-amino-[1,2,4]triazolo[1,5-a]pyridin-7-yl}-N-[3-(3,4-dichlorophenyl)-2,2-difluoro-3-hydroxypropyl]-2-fluoro-6-methylbenzamide] | > 15000 | – | – |
